Structures are written as SMILES.

For orientation: inhibition means the change of the read-out against control, counted positive when it falls.

Common to all, as to details: HEK-293T
In assay [1] the test system is Hepatitis C virus. Kind of assay: Antiviral activity against pseudo HCV infected in human 293T cells assessed as inhibition of HCV pseudo particles entry at 5 uM after 72 hrs by luciferase reporter gene assay. The class given is functional, Hepacivirus hominis. (A reporter such as luciferase makes a cellular process visible.)
For assay [2], the system named is Vesicular stomatitis virus. Kind of assay: Antiviral activity against pseudo VSV infected in human 293T cells assessed as inhibition of vesicular stromatis G protein pseudo particles entry at 5 uM after 72 hrs by luciferase reporter gene assay. The class given is functional.
Assay [3] deals with Vesicular stomatitis virus. Kind of assay: Antiviral activity against pseudo VSV infected in human 293T cells assessed as inhibition of vesicular stromatis G protein pseudo particles entry at 1 uM after 72 hrs by luciferase reporter gene assay. The class given is functional.
Assay [4] concerns Hepatitis C virus. The experiment in a line: Antiviral activity against pseudo HCV infected in human 293T cells assessed as inhibition of HCV pseudo particles entry at 1 uM after 72 hrs by luciferase reporter gene assay. The assay is classed as functional, Hepacivirus hominis.

As for `COC(=O)[C@]12CCC(C)(C)C[C@H]1C1=CC[C@@H]3[C@@]4(C)CC[C@H](O[Si](C)(C)C(C)(C)C)C(C)(C)[C@@H]4CC[C@@]3(C)[C@]1(C)C[C@H]2O`, the inhibition at 5 µM in the assay on Hepatitis C virus [1] is 27.8%; in assay [2], 37.4%. The inhibition at 1 µM worked out at 27.4% in assay [3] and 44.3% in the assay on Hepatitis C virus [4].
`CC(=O)O[C@@H]1[C@@H](OC(C)=O)[C@H](OC(C)=O)CO[C@H]1n1cc(CNC(=O)[C@]23CCC(C)(C)C[C@H]2C2=CC[C@@H]4[C@@]5(C)CC[C@H](O)C(C)(C)[C@@H]5CC[C@@]4(C)[C@]2(C)C[C@H]3O)nn1`: the inhibition at 5 µM in the assay with Hepatitis C virus [1] amounted to 87.3%; in assay [2], 47.7%. The inhibition at 1 µM in assay [3] came out at 39.8%; in the assay with Hepatitis C virus [4], 35.9%.
Consider `C[C@H]1O[C@@H](n2cc(CNC(=O)[C@]34CCC(C)(C)C[C@H]3C3=CC[C@@H]5[C@@]6(C)CC[C@H](O)C(C)(C)[C@@H]6CC[C@@]5(C)[C@]3(C)C[C@H]4O)nn2)[C@@H](O)[C@@H](O)[C@@H]1O`, for which the inhibition at 5 µM turned out to be 67% in the assay with Hepatitis C virus [1] and 13.9% in assay [2]. Further, the inhibition at 1 µM in assay [3] turned out to be 7.7%; with Hepatitis C virus [4], 32%.
On the same counts, the results for `CC1(C)CC[C@]2(C(=O)NCc3cn([C@@H]4OC[C@@H](O)[C@H](O)[C@@H]4O)nn3)[C@H](O)C[C@]3(C)C(=CC[C@@H]4[C@@]5(C)CC[C@H](O)C(C)(C)[C@@H]5CC[C@]43C)[C@@H]2C1` are 43.2%, 35.2%, 7% and 20.3%.
For `CC(=O)O[C@@H]1[C@H](OC(=O)[C@]23CCC(C)(C)C[C@H]2C2=CC[C@@H]4[C@@]5(C)CC[C@H](O)C(C)(C)[C@@H]5CC[C@@]4(C)[C@]2(C)C[C@H]3O)OC[C@@H](OC(C)=O)[C@H]1OC(C)=O`, the inhibition at 5 µM in the assay on Hepatitis C virus [1] was 60.6%; in assay [2], 20.1%. The inhibition at 1 µM in assay [3] came to 17.1%; in the assay with Hepatitis C virus [4], 19.3%.
The corresponding values for `CC1(C)CC[C@]2(C(=O)O)[C@H](O)C[C@]3(C)C(=CC[C@@H]4[C@@]5(C)CCC(N)C(C)(C)[C@@H]5CC[C@]43C)[C@@H]2C1` (some centres not stated) are 10.5%, 28.4%, 23.6% and 12.1%.
For `CC1(C)CC[C@]2(C(=O)O[C@@H]3O[C@H](CO)[C@@H](O[C@H]4O[C@H](CO)[C@@H](O)[C@H](O)[C@H]4O)[C@H](O)[C@H]3O)[C@H](O)C[C@]3(C)C(=CC[C@@H]4[C@@]5(C)CC[C@H](O)C(C)(C)[C@@H]5CC[C@]43C)[C@@H]2C1`, the inhibition at 5 µM with Hepatitis C virus [1] was found to be 43.7%; in assay [2] it was 21.9%. The values for the inhibition at 1 µM (in assay [3]; in the assay on Hepatitis C virus [4]) were 21.6% and 36.4%, respectively.
The corresponding values for `CC1(C)CC[C@]2(C(=O)O[C@@H]3OC[C@@H](O)[C@@H](O)[C@@H]3O)[C@H](O)C[C@]3(C)C(=CC[C@@H]4[C@@]5(C)CC[C@H](O)C(C)(C)[C@@H]5CC[C@]43C)[C@@H]2C1` are 54.6%, 5.8%, 15.6% and 34.7%.
For `COC(=O)[C@]12CCC(C)(C)C[C@H]1C1=CC[C@@H]3[C@@]4(C)CC[C@H](OCc5ccccc5)C(C)(C)[C@@H]4CC[C@@]3(C)[C@]1(C)C[C@H]2O`, the inhibition at 5 µM turned out to be 5.2% with Hepatitis C virus [1] and 25% in assay [2]. The inhibition at 1 µM in assay [3] came out at 12.6%; in the assay with Hepatitis C virus [4] it was 10.5%.
Turning to `CC(=O)OC[C@H]1O[C@@H](n2cc(CNC(=O)[C@]34CCC(C)(C)C[C@H]3C3=CC[C@@H]5[C@@]6(C)CC[C@H](O)C(C)(C)[C@@H]6CC[C@@]5(C)[C@]3(C)C[C@H]4O)nn2)[C@H](OC(C)=O)[C@@H](OC(C)=O)[C@@H]1O[C@H]1O[C@H](COC(C)=O)[C@@H](OC(C)=O)[C@H](OC(C)=O)[C@H]1OC(C)=O`, the inhibition at 5 µM in the assay on Hepatitis C virus [1] was 79.7%; in assay [2] it was 28.9%. Moreover, the inhibition at 1 µM is 13.2% in assay [3] and 56.4% in the assay on Hepatitis C virus [4].
Take `COC(=O)[C@]12CCC(C)(C)C[C@H]1C1=CC[C@@H]3[C@@]4(C)CCC(=O)C(C)(C)[C@@H]4CC[C@@]3(C)[C@]1(C)C[C@H]2O`: the results for the inhibition at 5 µM (with Hepatitis C virus [1]; in assay [2]) were 64.7% and 55.4%, respectively. For the same compound, the values for the inhibition at 1 µM (in assay [3]; in the assay on Hepatitis C virus [4]) were 21.5% and 3.5%, respectively.
The corresponding values for `CC1(C)CC[C@]2(C(=O)NCc3cn([C@@H]4O[C@H](CO)[C@@H](O[C@H]5O[C@H](CO)[C@@H](O)[C@H](O)[C@H]5O)[C@H](O)[C@H]4O)nn3)[C@H](O)C[C@]3(C)C(=CC[C@@H]4[C@@]5(C)CC[C@H](O)C(C)(C)[C@@H]5CC[C@]43C)[C@@H]2C1` are 29.7%, 48.1%, 25.8% and 9.3%.
With `CC(=O)O[C@@H]1[C@H](OC(C)=O)[C@H](n2cc(CNC(=O)[C@]34CCC(C)(C)C[C@H]3C3=CC[C@@H]5[C@@]6(C)CC[C@H](O)C(C)(C)[C@@H]6CC[C@@]5(C)[C@]3(C)C[C@H]4O)nn2)O[C@H](C)[C@H]1OC(C)=O`, the inhibition at 5 µM was 71.6% in the assay with Hepatitis C virus [1] and -10.7% in assay [2]. Also, the inhibition at 1 µM in assay [3] was determined as 32.6%; in the assay with Hepatitis C virus [4] it was 17%.
The corresponding values for `CC(=O)OC[C@H]1O[C@H](O[C@H]2[C@H](OC(C)=O)[C@@H](OC(C)=O)[C@H](OC(=O)[C@]34CCC(C)(C)C[C@H]3C3=CC[C@@H]5[C@@]6(C)CC[C@H](O)C(C)(C)[C@@H]6CC[C@@]5(C)[C@]3(C)C[C@H]4O)O[C@@H]2COC(C)=O)[C@H](OC(C)=O)[C@@H](OC(C)=O)[C@@H]1OC(C)=O` are 50%, 23.4%, 20.9% and 36.5%.
On the same counts, the results for `CC(=O)O[C@@H]1[C@@H](OC(C)=O)[C@H](OC(=O)[C@]23CCC(C)(C)C[C@H]2C2=CC[C@@H]4[C@@]5(C)CC[C@H](O)C(C)(C)[C@@H]5CC[C@@]4(C)[C@]2(C)C[C@H]3O)OC[C@H]1OC(C)=O` are 70.7%, 21.7%, 20.1% and 17.5%.
For the compound `CC1(C)CC[C@]2(C(=O)O[C@@H]3OC[C@@H](O)[C@H](O)[C@H]3O)[C@H](O)C[C@]3(C)C(=CC[C@@H]4[C@@]5(C)CC[C@H](O)C(C)(C)[C@@H]5CC[C@]43C)[C@@H]2C1`, the inhibition at 5 µM in the assay on Hepatitis C virus [1] was found to be 77.7%; in assay [2], 13%. Also, the figures for the inhibition at 1 µM (in assay [3]; in the assay with Hepatitis C virus [4]) were 36.5% and 33.8%, respectively.
For the compound `CC(=O)OC[C@H]1O[C@@H](O[C@H]2[C@H](OC(C)=O)[C@@H](OC(C)=O)[C@H](n3cc(CNC(=O)[C@]45CCC(C)(C)C[C@H]4C4=CC[C@@H]6[C@@]7(C)CC[C@H](O)C(C)(C)[C@@H]7CC[C@@]6(C)[C@]4(C)C[C@H]5O)nn3)O[C@@H]2COC(C)=O)[C@H](OC(C)=O)[C@@H](OC(C)=O)[C@H]1OC(C)=O`, the inhibition at 5 µM in the assay on Hepatitis C virus [1] came to 71.8%; in assay [2], 32.1%. Also, the inhibition at 1 µM was determined as 39% in assay [3] and 24.6% with Hepatitis C virus [4].
As to `CC1(C)CC[C@]2(C(=O)O)[C@H](O)C[C@]3(C)C(=CC[C@@H]4[C@@]5(C)CC[C@H](O)C(C)(C)[C@@H]5C[C@H](O)[C@]43C)[C@@H]2C1`, the inhibition at 5 µM in the assay on Hepatitis C virus [1] is 53.5%; in assay [2], 5.6%. Besides, the figures for the inhibition at 1 µM (in assay [3]; in the assay with Hepatitis C virus [4]) were 1.6% and 30.4%, respectively.
For the compound `CC1(C)CC[C@]2(C(=O)O)[C@H](OCc3ccccc3)C[C@]3(C)C(=CC[C@@H]4[C@@]5(C)CC[C@H](OCc6ccccc6)C(C)(C)[C@@H]5CC[C@]43C)[C@@H]2C1`, the values for the inhibition at 5 µM (in the assay on Hepatitis C virus [1]; in assay [2]) were 28.2% and 30.6%, respectively. The results for the inhibition at 1 µM (in assay [3]; in the assay on Hepatitis C virus [4]) were 28.8% and 5.5%, respectively.
For `CC1(C)CC[C@]2(C(=O)NCc3cn(CCNC(=O)CCCC[C@@H]4SC[C@@H]5NC(=O)N[C@@H]54)nn3)[C@H](O)C[C@]3(C)C(=CC[C@@H]4[C@@]5(C)CC[C@H](O)C(C)(C)[C@@H]5CC[C@]43C)[C@@H]2C1`, the inhibition at 5 µM in the assay on Hepatitis C virus [1] was determined as 76.7%; in assay [2] it was 12%. The inhibition at 1 µM in assay [3] is 10.3%; in the assay with Hepatitis C virus [4], 34.2%.
The corresponding values for `CC1(C)CC[C@]2(C(=O)NCc3cn([C@@H]4O[C@H](CO)[C@H](O)[C@H](O)[C@H]4O)nn3)[C@H](O)C[C@]3(C)C(=CC[C@@H]4[C@@]5(C)CC[C@H](O)C(C)(C)[C@@H]5CC[C@]43C)[C@@H]2C1` are 36.3%, 25.3%, 11.5% and 16.6%.
On the same counts, the results for `CC1(C)CC[C@]2(C(=O)O)[C@H](O)C[C@]3(C)C(=CC[C@@H]4[C@@]5(C)[C@H](O)C[C@H](O)C(C)(C)[C@@H]5CC[C@]43C)[C@@H]2C1` are 35.2%, 11.8%, 7.9% and 14.3%.
The corresponding values for `CC1(C)CC[C@]2(C(=O)O)[C@H](O)C[C@]3(C)C(=CC[C@@H]4[C@@]5(C)CC[C@H](OS(=O)(=O)O)C(C)(C)[C@@H]5CC[C@]43C)[C@@H]2C1` are 55.2%, 40.4%, 39.1% and 33.4%.

These data come from ChEMBL document CHEMBL2385072, “Development of oleanane-type triterpenes as a new class of HCV entry inhibitors” (J Med Chem, 2013).
